Laboratory results published in patent US5530126A, “Process for the preparation of substituted 6-(pyrazol-3yl)-1,4-benzoxazin-3-ones” (Monsanto Company, priority 1994, dated 1996).

Tests used:
Assay type in all cases: in vivo
Yellow nutsedge [1] = assay: Pre-emergence herbicide test; settings: Cyperus, read-out: % plant inhibition (Yens); for inhibition at 1120 g/ha: 1.12 kg/ha
How it was run: (§1)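 Readout: % inhibition per species, observed ~10-14 d after seeding and treatment. Treatment: known amount of active in acetone or water onto seed bed, covered with untreated soil; greenhouse, watered from below.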

Seedling johnsongrass [2] = assay: Pre-emergence herbicide test; settings: Sorghum halepense, read-out: % plant inhibition (Sejg); for inhibition at 1120 g/ha: 1.12 kg/ha
How it was run: as §1

Velvetleaf [3] = assay: Pre-emergence herbicide test; settings: Abutilon theophrasti, read-out: % plant inhibition (Vele); for inhibition at 1120 g/ha: 1.12 kg/ha
How it was run: as §1

Annual bluegrass [4] = assay: Pre-emergence herbicide test; settings: read-out: % plant inhibition (Anbg); for inhibition at 1120 g/ha: 1.12 kg/ha
How it was run: as §1

Indian Mustard [5] = assay: Pre-emergence herbicide test; settings: Brassica juncea, read-out: % plant inhibition (Inmu); for inhibition at 1120 g/ha: 1.12 kg/ha
How it was run: as §1

Cocklebur [6] = assay: Pre-emergence herbicide test; settings: Xanthium strumarium, read-out: % plant inhibition (Cobu); for inhibition at 1120 g/ha: 1.12 kg/ha
How it was run: as §1

Morningglory [7] = assay: Pre-emergence herbicide test; settings: Ipomoea, read-out: % plant inhibition (Mogl); for inhibition at 1120 g/ha: 1.12 kg/ha
How it was run: as §1

Barnyardgrass [8] = assay: Pre-emergence herbicide test; settings: Echinochloa crus-galli, read-out: % plant inhibition (Bygr); for inhibition at 1120 g/ha: 1.12 kg/ha
How it was run: as §1

Downy Brome [9] = assay: Pre-emergence herbicide test; settings: Bromus tectorum, read-out: % plant inhibition (Dobr); for inhibition at 1120 g/ha: 1.12 kg/ha
How it was run: as §1

Wild buckwheat [10] = assay: Pre-emergence herbicide test; settings: Fallopia convolvulus, read-out: % plant inhibition (Wibw); for inhibition at 1120 g/ha: 1.12 kg/ha
How it was run: as §1

Yellow nutsedge [11] = assay: Post-emergence herbicide test; settings: Cyperus, read-out: % plant inhibition (Yens); for inhibition at 1120 g/ha: 1.12 kg/ha
How it was run: (§2)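 Post-emergence greenhouse spray: 2–3-wk-old plants in soil pans; atomizer at 170.3 kPa (10 psig); 1870 L/Ha carrier volume, ~0.4% v/v emulsifier. Read-out is % inhibition vs control at 10–14 d (usually 11 d), occasionally also 24–28 d.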

Seedling johnsongrass [12] = assay: Post-emergence herbicide test; settings: Sorghum halepense, read-out: % plant inhibition (Sejg); for inhibition at 1120 g/ha: 1.12 kg/ha
How it was run: as §2

Velvetleaf [13] = assay: Post-emergence herbicide test; settings: Abutilon theophrasti, read-out: % plant inhibition (Vele); for inhibition at 1120 g/ha: 1.12 kg/ha
How it was run: as §2

Annual bluegrass [14] = assay: Post-emergence herbicide test; settings: read-out: % plant inhibition (Anbg); for inhibition at 1120 g/ha: 1.12 kg/ha
How it was run: as §2

Indian Mustard [15] = assay: Post-emergence herbicide test; settings: Brassica juncea, read-out: % plant inhibition (Inmu); for inhibition at 1120 g/ha: 1.12 kg/ha
How it was run: as §2

Cocklebur [16] = assay: Post-emergence herbicide test; settings: Xanthium strumarium, read-out: % plant inhibition (Cobu); for inhibition at 1120 g/ha: 1.12 kg/ha
How it was run: as §2

Morningglory [17] = assay: Post-emergence herbicide test; settings: Ipomoea, read-out: % plant inhibition (Mogl); for inhibition at 1120 g/ha: 1.12 kg/ha
How it was run: as §2

Barnyardgrass [18] = assay: Post-emergence herbicide test; settings: Echinochloa crus-galli, read-out: % plant inhibition (Bygr); for inhibition at 1120 g/ha: 1.12 kg/ha
How it was run: as §2

Downy Brome [19] = assay: Post-emergence herbicide test; settings: Bromus tectorum, read-out: % plant inhibition (Dobr); for inhibition at 1120 g/ha: 1.12 kg/ha
How it was run: as §2

Wild buckwheat [20] = assay: Post-emergence herbicide test; settings: Fallopia convolvulus, read-out: % plant inhibition (Wibw); for inhibition at 1120 g/ha: 1.12 kg/ha
How it was run: as §2

SMILES | inhibition at 1120 g/ha (Yellow nutsedge [1]) [%] | inhibition at 1120 g/ha (Seedling johnsongrass [2]) [%] | inhibition at 1120 g/ha (Velvetleaf [3]) [%] | inhibition at 1120 g/ha (Annual bluegrass [4]) [%] | inhibition at 1120 g/ha (Indian Mustard [5]) [%] | inhibition at 1120 g/ha (Cocklebur [6]) [%] | inhibition at 1120 g/ha (Morningglory [7]) [%] | inhibition at 1120 g/ha (Barnyardgrass [8]) [%] | inhibition at 1120 g/ha (Downy Brome [9]) [%] | inhibition at 1120 g/ha (Wild buckwheat [10]) [%] | inhibition at 1120 g/ha (Yellow nutsedge [11]) [%] | inhibition at 1120 g/ha (Seedling johnsongrass [12]) [%] | inhibition at 1120 g/ha (Velvetleaf [13]) [%] | inhibition at 1120 g/ha (Annual bluegrass [14]) [%] | inhibition at 1120 g/ha (Indian Mustard [15]) [%] | inhibition at 1120 g/ha (Cocklebur [16]) [%] | inhibition at 1120 g/ha (Morningglory [17]) [%] | inhibition at 1120 g/ha (Barnyardgrass [18]) [%] | inhibition at 1120 g/ha (Downy Brome [19]) [%] | inhibition at 1120 g/ha (Wild buckwheat [20]) [%] | also measured
Cn1nc(-c2cc(O)c(Br)cc2F)c(Cl)c1C(F)(F)F [Compound 95] | 20 | 50 | 90 | 30 | 80 | 20 | 40 | 50 | 20 | 100 | 10 | 50 | 100 | 60 | 70 | 100 | 80 | 80 | 40 | 100 | 
C#CCOc1cc(-c2nn(C)c(C(F)(F)F)c2Cl)c(F)cc1Br [Compound 96] | 20 | 90 | 100 | 100 | 100 | 60 | 100 | 80 | 100 | 100 | 40 | 100 | 100 | 100 | 100 | 90 | 100 | 100 | 100 | 100 | 
CCOC(=O)C(C)Oc1cc(-c2nn(C)c(C(F)(F)F)c2Cl)c(F)cc1Br (centres unmarked) [Compound 97] | 20 | 50 | 100 | 80 | 90 | 90 | 40 | 50 | 80 | 100 | 50 | 60 | 100 | 70 | 100 | 100 | 90 | 100 | 90 | 100 | 
Cn1nc(-c2cc(C3=NCCO3)c(Cl)cc2F)c(Cl)c1C(F)(F)F [Compound 98] | 0 | 70 | 90 | 0 | 70 | 20 | 80 | 30 | 60 | 60 | 0 | 90 | 100 | 70 | 80 | 100 | 100 | 80 | 90 | 50 | 
Cn1nc(-c2cc(N3CCOCC3)c(Cl)cc2F)c(Cl)c1C(F)(F)F [Compound 99] |  |  |  |  |  |  |  |  |  |  |  |  |  |  |  |  |  |  |  |  | inhibition at 11210 g/ha (Yellow nutsedge [1]; 11.21 kg/ha): 30%; inhibition at 11210 g/ha (Seedling johnsongrass [2]; 11.21 kg/ha): 90%; inhibition at 11210 g/ha (Velvetleaf [3]; 11.21 kg/ha): 100%; inhibition at 11210 g/ha (Annual bluegrass [4]; 11.21 kg/ha): 80%; inhibition at 11210 g/ha (Indian Mustard [5]; 11.21 kg/ha): 100%; inhibition at 11210 g/ha (Cocklebur [6]; 11.21 kg/ha): 80%; inhibition at 11210 g/ha (Morningglory [7]; 11.21 kg/ha): 90%; inhibition at 11210 g/ha (Barnyardgrass [8]; 11.21 kg/ha): 90%; inhibition at 11210 g/ha (Downy Brome [9]; 11.21 kg/ha): 100%; inhibition at 11210 g/ha (Wild buckwheat [10]; 11.21 kg/ha): 100%; inhibition at 11210 g/ha (Yellow nutsedge [11]; 11.21 kg/ha): 10%; inhibition at 11210 g/ha (Seedling johnsongrass [12]; 11.21 kg/ha): 100%; inhibition at 11210 g/ha (Velvetleaf [13]; 11.21 kg/ha): 100%; inhibition at 11210 g/ha (Annual bluegrass [14]; 11.21 kg/ha): 100%; inhibition at 11210 g/ha (Indian Mustard [15]; 11.21 kg/ha): 100%; inhibition at 11210 g/ha (Cocklebur [16]; 11.21 kg/ha): 90%; inhibition at 11210 g/ha (Morningglory [17]; 11.21 kg/ha): 100%; inhibition at 11210 g/ha (Barnyardgrass [18]; 11.21 kg/ha): 100%; inhibition at 11210 g/ha (Downy Brome [19]; 11.21 kg/ha): 90%; inhibition at 11210 g/ha (Wild buckwheat [20]; 11.21 kg/ha): 100%
Cn1nc(-c2cc(C3OCCO3)c(Cl)cc2F)c(Cl)c1C(F)(F)F [Compound 100, 4-chloro-3-(4-chloro-5-(1,3-dioxolan-2-yl)-2-fluorophenyl)-1-methyl-5-(trifluoromethyl)-1H-pyrazole] | 0 | 90 | 100 | 90 | 100 | 20 | 80 | 70 | 100 | 100 | 20 | 100 | 100 | 100 | 80 | 80 | 100 | 100 | 100 | 100 | 
Cn1nc(-c2cc(C3SCCS3)c(Cl)cc2F)c(Cl)c1C(F)(F)F [Compound 101] | 0 | 80 | 100 | 70 | 100 | 30 | 80 | 40 | 80 | 90 | 30 | 70 | 100 | 90 | 100 | 100 | 100 | 100 | 100 | 100 | 
Cn1nc(-c2cc(C3OCCS3)c(Cl)cc2F)c(Cl)c1C(F)(F)F (centres unmarked) [Compound 102] | 20 | 90 | 100 | 60 | 100 | 30 | 100 | 80 | 80 | 100 | 20 | 100 | 100 | 90 | 100 | 60 | 100 | 90 | 100 | 100 | 
Cn1nc(-c2cc(C(C)(C)C#N)c(Cl)cc2F)c(Cl)c1C(F)(F)F [Compound 103] | 0 | 40 | 50 | 20 | 40 | 0 | 60 | 20 | 70 | 100 | 10 | 70 | 100 | 40 | 70 | 60 | 80 | 80 | 30 | 100 | 
CCOC(=O)CON=C(C)c1cc(-c2nn(C)c(C(F)(F)F)c2Cl)c(F)cc1Cl [Compound 104] | 0 | 80 | 90 | 20 | 80 | 20 | 80 | 10 | 80 | 70 | 20 | 80 | 100 | 30 | 40 | 70 | 100 | 50 | 40 | 100 | 
